Literature values, collected in patent US12533325B2, “Composition and method for preventing or treating opioid withdrawal symptoms” (priority 2023, dated 2026).

Tested on: heroin-seeking behavior

C=C(C)[C@@H]1CCC(C)=C[C@H]1c1c(O)cc(CCCCC)cc1O [CBD, Cannabidiol]
heroin-seeking behavior reinstated by a conditional stimulus (cue-induced reinstatement): attenuated heroin-seeking behavior reinstated by a conditional stimulus | persistence of effect on heroin-seeking behavior after administration (twenty-four hours and two weeks after administration): protracted effect with significance after twenty-four hours and even two weeks after administration
